The target in assay [1] is T1, α4β1 integrin (Jurkat T-cell adhesion to IL-1 stimulated endothelial cell monolayers) (Homo sapiens, UniProt P05556+P13612).
T1 construct: a T-cell line, Jurkat, known to express the α4β1 integrin; host or cells: Jurkat T-cell line
The assay is described as follows: Jurkat-endothelial cell adhesion assay (Jurkat EC). The following applies: Jurkat cells on IL-1 stimulated human umbilical vein endothelial cells; read-out: JK/EC (Jurkat EC Assay IC50 value range). Format: cell-based. As for the experimental part: Jurkat-endothelial Cell Adhesion Assay:
The following assay established the activity of the present compounds in inhibiting β1-mediated cell adhesion in a representative in vitro system. This assay measures the adhesive interactions of a T-cell line, Jurkat, known to express the α4β1 integrin, to endothelial monolayers in the presence of test compounds. The test compounds were added in increasing concentrations to T-cells and then the T-cell compound mixture was added to IL-1 stimulated endothelial cell monolayers. The plates were incubated, washed and the percentage of attached cells was quantitated.
Human umbilical vein endothelial cells were purchased from Clonetics (San Diego, Calif.) at passage number 2. The cells were grown on 0.5% porcine skin gelatin pre-coated flasks (Sigma, St. Louis Mo.) in EGM-UV media (Clonetics, San Diego, Calif.) supplemented with 10% fetal bovine serum. Cells are refed every 2-3 days reaching confluence by day 4 to 6. […] The endothelial cells are not used following passage 6.
The T-cell line Jurkat was obtained from American Type Tissue Culture Collection (Rockville, Md.) and the cells were cultured in RPMI containing 10% fetal calf serum. The cells were washed twice in Hank's Balanced Salt Solution (HBSS) and resuspended in Dulbecco's Minimal Eagle's Media (DMEM) containing 2.5 mg/ml Human Serum Albumin (HSA). Jurkat cells (1×10^6 cells/ml) were stained with 10 ng/ml BCECF-AM (Molecular Probes, Eugene, Oreg.)) in HBSS without phenol red. The cells were loaded with BCECF for 60 minutes in the dark at 370C, washed 2 times, and resuspended in DMEM-HSA solution.
Confluent endothelial monolayers, grown in 96-well tissue culture plates, were stimulated for 4 hr. at 37° C. with 0.1 ng/ml (˜50 U/ml) recombinant IL-1 (Amgen, Thousand Oaks, Calif.). Following this incubation, the monolayers were washed twice with HBSS and 0.1 ml of DMEM−HSA solution was added. Jurkat cells (5×10^5 cells) were combined with the appropriate concentration of the test compound and 0.1 ml of the Jurkat cell-compound mixture was added to the endothelial cell monolayers. Generally, 100, 20, 5 and 1.25 μM compound concentrations were tested. […] The plates were placed on ice for 5 minutes to allow for Jurkat cell settling and the plates were incubated at 37° C. for 20 minutes. Following this incubation, the monolayers were washed twice with PBS containing 1 mM calcium chloride and 1 mM magnesium chloride and the plates were read using a Millipore Cytofluor 2300 (Marlboro, Mass.). Fluorescence in each well was measured as Arbitrary Fluorescence Units and percent adhesion in the absence of compound was adjusted to 100% and the % adhesion in the presence of compound was calculated. Monolayers were also fixed in 3% paraformaldehyde and evaluated microscopically to verify the adhesion. This procedure is a modification of a previously published method (Cardarelli et al., J. Biol. Chem. 269:18668-18673 (1994)).

In assay [2] the target is T2, α4β1 integrin (Jurkat cell adhesion to immobilized CS-1 derived peptide CLHPGEILDVPST) (Homo sapiens, UniProt P05556+P13612).
T2 construct: 100 μl of Jurkat cells (2.5×10^6 cells/ml) in DMEM plus BSA; host or cells: Jurkat T-cell line
T2 sequence (P13612 34-1032): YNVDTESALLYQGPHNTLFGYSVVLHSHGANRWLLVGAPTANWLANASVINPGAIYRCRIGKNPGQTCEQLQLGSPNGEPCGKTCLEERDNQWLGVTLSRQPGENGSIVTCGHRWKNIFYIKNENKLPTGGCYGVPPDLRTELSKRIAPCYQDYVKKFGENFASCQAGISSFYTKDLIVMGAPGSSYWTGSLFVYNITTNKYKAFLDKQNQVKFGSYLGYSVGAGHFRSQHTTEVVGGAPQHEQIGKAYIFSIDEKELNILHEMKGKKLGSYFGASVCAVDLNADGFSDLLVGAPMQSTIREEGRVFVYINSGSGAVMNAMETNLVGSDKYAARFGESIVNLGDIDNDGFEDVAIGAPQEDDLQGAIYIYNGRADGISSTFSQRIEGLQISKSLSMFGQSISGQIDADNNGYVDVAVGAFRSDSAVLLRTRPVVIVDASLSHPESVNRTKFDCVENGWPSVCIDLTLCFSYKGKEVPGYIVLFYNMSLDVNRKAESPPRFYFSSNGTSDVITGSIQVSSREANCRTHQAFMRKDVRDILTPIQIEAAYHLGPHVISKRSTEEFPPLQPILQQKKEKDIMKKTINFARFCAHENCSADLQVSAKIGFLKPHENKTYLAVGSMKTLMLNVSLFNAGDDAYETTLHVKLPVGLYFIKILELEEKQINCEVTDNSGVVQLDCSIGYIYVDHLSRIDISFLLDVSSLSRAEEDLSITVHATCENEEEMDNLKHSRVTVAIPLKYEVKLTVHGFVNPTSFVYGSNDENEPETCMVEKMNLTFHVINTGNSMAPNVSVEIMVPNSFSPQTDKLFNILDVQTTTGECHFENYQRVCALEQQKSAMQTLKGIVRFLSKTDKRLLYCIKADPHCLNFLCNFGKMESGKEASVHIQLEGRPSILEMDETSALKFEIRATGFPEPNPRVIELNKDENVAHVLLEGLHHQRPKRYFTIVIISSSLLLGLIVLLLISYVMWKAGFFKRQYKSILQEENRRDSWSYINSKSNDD
T2 sequence (P05556 21-798): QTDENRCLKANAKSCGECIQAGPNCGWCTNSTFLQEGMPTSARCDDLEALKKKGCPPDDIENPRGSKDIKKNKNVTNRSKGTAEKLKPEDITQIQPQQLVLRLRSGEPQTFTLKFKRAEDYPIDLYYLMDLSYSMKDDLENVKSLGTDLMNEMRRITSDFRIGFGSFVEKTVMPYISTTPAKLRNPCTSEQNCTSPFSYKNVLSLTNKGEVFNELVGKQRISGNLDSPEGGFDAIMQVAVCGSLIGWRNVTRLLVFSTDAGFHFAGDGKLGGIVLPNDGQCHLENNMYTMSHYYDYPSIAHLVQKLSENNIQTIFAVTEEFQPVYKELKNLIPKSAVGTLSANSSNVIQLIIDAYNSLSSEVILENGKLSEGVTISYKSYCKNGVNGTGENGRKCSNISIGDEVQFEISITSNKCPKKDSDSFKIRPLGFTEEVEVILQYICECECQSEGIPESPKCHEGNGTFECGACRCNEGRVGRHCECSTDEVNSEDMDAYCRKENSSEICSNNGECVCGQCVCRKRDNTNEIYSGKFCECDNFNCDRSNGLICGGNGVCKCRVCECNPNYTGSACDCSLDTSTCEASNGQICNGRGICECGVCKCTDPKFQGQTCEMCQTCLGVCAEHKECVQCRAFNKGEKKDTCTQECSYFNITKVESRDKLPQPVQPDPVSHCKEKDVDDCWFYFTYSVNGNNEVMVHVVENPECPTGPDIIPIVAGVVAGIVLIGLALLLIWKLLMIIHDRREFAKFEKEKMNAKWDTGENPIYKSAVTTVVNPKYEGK
As to the kind of experiment: Jurkat-CS-1 assay. The class given is cell-based. The following applies: Jurkat cells on CS-1 peptide coated plates; read-out: JK/CS-1 (Jurkat CS-1 Assay IC50 value range). As for the experimental part:
The CS-1 derived peptide, CLHPGEILDVPST, and the scrambled control peptide, CLHGPIELVSDPT, were synthesized on a Beckman 990 synthesizer using t-Boc methodology. The peptides were immobilized onto microtiter plates using the heterobifunctional crosslinker 3-(2-pyridyldithio)propionic acid N-hydroxysuccinimide ester (SPDP) as reported by Pierschbacher et al., Proc. Natl. Acad. USA, 80:1224-1227 (1983). Microtiter plates were coated with 20 μg/ml HSA for 2 hr. at room temperature, washed once with PBS and derivatized with 10 μg/ml SPDP for 1 hr. After washing, 100 μl of a 100 μg/ml cysteine containing peptide solution which had been recently dissolved was added to the wells and allowed to crosslink to the plates overnight at 4° C. Unbound peptide was removed from plates by washing with PBS. To block non-reacted sites, the plates are coated with 100 μl of a 2.5 mg/ml BSA solution in PBS for 1 hr. at 37° C. 100 μl of Jurkat cells (2.5×10^6 cells/ml) in DMEM plus BSA (2.5 mg/ml) was mixed with an appropriate concentration of the compound to be tested and the mixture was added to peptide coated dishes and incubated for 1 hr. at 37° C. Generally 100, 20, 5 and 1.25 μM concentrations of the compound were tested.
Following this incubation the plates were washed once with PBS and the attached cells were fixed with 3% paraformaldehyde in PBS and stained with 0.5% toluidine blue in 3.7% formaldehyde. The cells were stained overnight at room temperature and the optical density at 590 nm of toluidine blue stained cells was determined using a vertical pathway spectrophotometer to quantitate attachment (VMAX Kinetic Microplate Reader, Molecular Devices, Menlo Park, Calif.). This procedure is a modification of a previously published method (Cardarelli et al, J. Biol. Chem., 269:18668-18673 (1994) and Cardarelli et al, Proc. Natl. Acad. Sci. USA, 83:2647-2651 (1986)).

T1 sequence (P13612 34-1032): as the sequence (P13612 34-1032) above
T1 sequence (P05556 21-798): as the sequence (P05556 21-798) above

`CCOC(=O)N1[C@@H](C(=O)N[C@@H](Cc2ccc(NC(=O)c3c(Cl)cccc3Cl)cc2)C(=O)O)CSC12CCCCC2` (relative stereo) [Example 80, [S-(R*,R*)]-3-[[[1-Carboxy-2-[4-[(2,6-dichlorobenzoyl)amino]phenyl]ethyl]amino]carbonyl]-1-thia-4-azaspiro[4.5]decane-4-carboxylic Acid 4-Ethyl Ester]: the results for the IC50 in assay [1] and in assay [2] were at least 1000 nM and at least 750 nM, respectively.

Regarding `O=C(O)CCC(=O)N1CCSC[C@H]1C(=O)N[C@@H](Cc1ccc(NC(=O)c2c(Cl)cccc2Cl)cc1)C(=O)O` (relative stereo) [Example 99, [R-(R*,S*)]-3-[[[1-Carboxy-2-[4-[(2,6-dichlorobenzoyl)amino]phenyl]ethyl]amino]carbonyl]-γ-oxo-4-thiomorpholinebutanoic Acid], the figures for the IC50 in assay [1] and in assay [2] were at most 250 nM and at most 50 nM, respectively.

On to `O=C(Nc1ccc(C[C@H](NC(=O)[C@H]2CSCN2C(=O)OCC2c3ccccc3-c3ccccc32)C(=O)O)cc1)c1c(Cl)cccc1Cl` (relative stereo) [Example 19], for which the IC50 in assay [1] is at most 250 nM; in assay [2] it was 50 to 750 nM.

`CC(C)(C)OC(=O)N1CCSC[C@H]1C(=O)N[C@@H](Cc1ccc(NC(=O)c2c(Cl)cccc2Cl)cc1)C(=O)O` (relative stereo) [Example 100, [R-(R*,S*)]-3-[[[1-Carboxy-2-[4-[(2,6-dichlorobenzoyl)amino]phenyl]ethyl]amino]carbonyl]-4-thiomorpholinecarboxylic Acid 4-(1,1-Dimethylethyl)ester]: the IC50 in assay [1] lay within 250 to 1000 nM; in assay [2] it was 50 to 750 nM.

`O=C(Nc1ccc(C[C@H](NC(=O)[C@@H]2CSCN2C(=O)c2cc(O)c3ccccc3n2)C(=O)O)cc1)c1c(Cl)cccc1Cl` [Example 242]: the IC50 is at least 1000 nM in assay [1] and 50 to 750 nM in assay [2].

As for `O=C(O)[C@H](Cc1ccc(OCc2c(Cl)cccc2Cl)cc1)NC(=O)[C@H]1CSCN1C(=O)OCCN1CCCCC1` (relative stereo) [Example 152, [S-(R*,R*)]-4-[[[1-Carboxy-2-[4-[(2,6-dichlorophenyl)methoxy]phenyl]ethyl]amino]carbonyl]-3-thiazolidinecarboxylic Acid 3-[2-(1-Piperidinyl)ethyl]ester], the figures for the IC50 in assay [1] and in assay [2] were at most 250 nM and at most 50 nM, respectively.

As to `CCOC(=O)N1[C@@H](C(=O)N[C@@H](Cc2ccc(NC(=O)c3c(Cl)cccc3Cl)cc2)C(=O)O)CSC12CCCC2` (relative stereo) [Example 78, [S-(R*,R*)]-3-[[[1-Carboxy-2-[4-[(2,6-dichlorobenzoyl)amino]phenyl]ethyl]amino]carbonyl]-1-thia-4-azaspiro[4.4]nonane-4-carboxylic Acid 4-Ethyl Ester], the figures for the IC50 in assay [1] and in assay [2] were at least 1000 nM and 50 to 750 nM, respectively.

Regarding `CC(C)(CC(=O)O)CC(=O)N1CCC[C@H]1C(=O)N[C@@H](Cc1ccc(NC(=O)c2c(Cl)cccc2Cl)cc1)C(=O)O` [Example 226], the IC50 is at least 1000 nM in assay [1] and 50 to 750 nM in assay [2].

`O=C(O)c1cccc(C(=O)N2CCCC[C@H]2C(=O)N[C@@H](Cc2ccc(NC(=O)c3c(Cl)cccc3Cl)cc2)C(=O)O)c1` [Example 182]: the IC50 in assay [1] was in the range of 250 to 1000 nM; in assay [2] it was 50 to 750 nM.

Consider `COC(=O)CCCC(=O)N1CSC[C@@H]1C(=O)N[C@@H](Cc1ccc(NC(=O)c2c(Cl)cccc2Cl)cc1)C(=O)OC` (relative stereo) [Example 59, [S-(R*,R*)]-4-[[[1-[4-[(2,6-dichlorobenzoyl)amino]phenyl]methyl]-2-methoxy-2-oxoethyl]amino]carbonyl]-δ-oxo-3-thiazolidinepentanoic Acid 3-Methyl Ester], for which the IC50 is at least 1000 nM in assay [1] and 50 to 750 nM in assay [2].

For `O=C(NO)[C@H](Cc1ccc(OCc2c(Cl)cccc2Cl)cc1)NC(=O)[C@H]1CSCN1C(=O)OCCN1CCCCC1` [Example 93], the values for the IC50 in assay [1] and in assay [2] were at least 1000 nM and at least 750 nM, respectively.

Consider `O=C(Nc1ccc(C[C@H](NC(=O)[C@H]2CSCN2C(=O)OCc2ccccn2)C(=O)O)cc1)c1c(Cl)cccc1Cl` (relative stereo) [Example 149, [S-(R*,R*)]-4-[[[-Carboxy-2-[4-[(2,6-dichlorobenzoyl)amino]phenyl]ethyl]amino]carbonyl]-3-thiazolidinecarboxylic Acid 3-(2-pyridinylmethyl)ester], for which the values for the IC50 in assay [1] and in assay [2] were at most 250 nM and at most 50 nM, respectively.

As for `O=C(Nc1ccc(C[C@H](NC(=O)[C@H]2CSCN2C(=O)N(CCO)CCO)C(=O)O)cc1)c1c(Cl)cccc1Cl` [Example 58, N-[[(4S)-3-[[bis(2-Hydroxyethyl)amino]carbonyl]thiazoldinyl]carbonyl]-4-[(2,6-dichlorobenzoyl)amino]-L-phenylalanine], the IC50 is at most 250 nM in assay [1] and at most 50 nM in assay [2].

With `O=C(O)/C=C/C(=O)N1CCCC[C@H]1C(=O)N[C@@H](Cc1ccc(NC(=O)c2c(Cl)cccc2Cl)cc1)C(=O)O` [Example 176], the IC50 was at least 1000 nM in assay [1] and 50 to 750 nM in assay [2].

Regarding `COC(=O)[C@H](Cc1ccc(NC(=O)c2c(Cl)cccc2Cl)cc1)NC(=O)[C@H]1CSCN1C(=O)NC(C)(C)C` [Example 6, 4-[(2,6-Dichlorobenzoyl)amino]-N-[[(4S)-3-[((1,1-dimethylethyl)amino)carbonyl]-4-thiazolidinyl]carbonyl]-L-phenylalanine Methyl Ester], the results for the IC50 in assay [1] and in assay [2] were at least 1000 nM and at least 750 nM, respectively.

Consider `O=C(O)c1ccccc1C(=O)N1CCC[C@H]1C(=O)N[C@@H](Cc1ccc(NC(=O)c2c(Cl)cccc2Cl)cc1)C(=O)O` [Example 234], for which the IC50 is at least 1000 nM in assay [1] and 50 to 750 nM in assay [2].

Consider `O=C(Nc1ccc(C[C@H](NC(=O)[C@@H]2CCCN2C(=O)C2CCCC(C(=O)O)C2)C(=O)O)cc1)c1c(Cl)cccc1Cl` (stereo partly drawn) [Example 230], for which the IC50 in assay [1] is at least 1000 nM; in assay [2], 50 to 750 nM.

As to `COC(=O)CCC(=O)N1[C@@H](C(=O)N[C@@H](Cc2ccc(NC(=O)c3c(Cl)cccc3Cl)cc2)C(=O)OC)C(C)(C)SC1(C)C` (relative stereo) [Example 86, [S-(R*,R*)]-4-[[[1-[[4-[(2,6-Dichlorobenzoyl)amino]phenyl]methyl]-2-methoxy-2-oxoethyl]amino]carbonyl]-2,2,5,5-tetramethyl-γ-oxo-3-thiazolidinebutanoic Acid Methyl Ester], the values for the IC50 in assay [1] and in assay [2] were at least 1000 nM and at least 750 nM, respectively.

(Values after patent US6685617B1, “Inhibitors of α4β1 mediated cell adhesion” (Pharmacia & Upjohn Company, priority 1998, dated 2004).)
